Laboratory results from patent publication US7806924B2 (Cordis Corporation, priority 2004, dated 2010).

Columns and labels:
[1] = In vivo release kinetics of rapamycin and mycophenolic acid, porcine pharmacokinetics studies
Source text: The topcoat is two hundred micro grams.

[2] = In vivo release kinetics of rapamycin and cladribine, porcine pharmacokinetics studies; parameters: species or system Yorkshire pigs; conditions: Bx Velocity stents, FIG. 63 compared to FIG. 62
Source text: (§1) The basecoat is applied to Bx Velocity® stents and implanted into Yorkshire pigs.
as §1

[3] = test system: human coronary artery smooth muscle cells; experiment: Anti-proliferative activity in non-synchronized cultured human coronary artery smooth muscle cells stimulated with two percent fetal bovine serum; format: cell-based; conditions: for effect on the anti-proliferative activity of rapamycin (shift of the rapamycin dose response curve): added to cells treated with rapamycin
Source text: The multiple curves represent various concentrations of mycophenolic acid ranging from zero to one thousand nanomolar concentrations.
FIG. 58 illustrates, in graphical format, the anti-proliferative activity of cladribine in non-synchronized cultured human coronary artery smooth muscle cells stimulated with two percent fetal bovine serum.
The multiple curves represent various concentrations of cladribine ranging from zero to nine hundred nanomolar concentrations.

[4] = test system: human smooth muscle cells; experiment: Cladribine Example: PDGF-stimulated proliferation, cell count on day six, smooth muscle cells; format: cell-based; conditions: from the IC50 values
Procedure: To assess the ability of cladribine to prevent cell proliferation, human smooth muscle or endothelial cells (Clonetics, Walkersville, Md.) were seeded at a density of 2000 cells/cm^2 (approximately 3600 cells/well) into each well of 12-well plates and cultured with 1.5 ml of growth medium containing five percent fetal calf serum (FCS). After twenty-four hours, the growth medium was changed and fresh medium containing 10 ng/ml platelet-derived growth factor AB (PDGF AB; LIFE Technologies), as well as various concentrations of cladribine (0.001-10,000 nM) were added with triplicate wells. Medium was replaced with fresh cladribine-containing medium after three days. On day six, cells were detached by trypsinization to yield a cell suspension, lightly centrifuged to pellet and then counted manually using a Neubauer hemocytometer system. Cell viability was assessed by trypan blue exclusion.

[5] = test system: human coronary artery smooth muscle cell proliferation; experiment: In vitro cell culture study of coronary artery smooth muscle cell proliferation; format: cell-based
Source text: FIG. 51 is a graph of the inhibition of coronary artery smooth muscle cells by trichostatin A in a cell culture study.

[6] = test system: tumor cell lines; conditions: cited from earlier work

## CO[C@H]1C[C@@H]2CC[C@@H](C)[C@@](O)(O2)C(=O)C(=O)N2CCCC[C@H]2C(=O)O[C@H]([C@H](C)C[C@@H]2CC[C@@H](O)[C@H](OC)C2)CC(=O)[C@H](C)/C=C(\C)[C@@H](O)[C@@H](OC)C(=O)[C@H](C)C[C@H](C)/C=C/C=C/C=C/1C [Rapamycin, rapamycin]
[1]; six hundred micro grams basecoat, two hundred micro grams topcoat
  in vivo release rate from PVDF basecoat with PVDF topcoat: slower release rate than that of mycophenolic acid

## Nc1nc(Cl)nc2c1ncn2[C@H]1C[C@H](O)[C@@H](CO)O1 [cladribine, 2-chlorodeoxyadenosine]
[2]
  in vivo elution from EVA/BMA basecoat with BMA topcoat: elutes more rapidly than rapamycin
[3]; FIG. 58
  inhibition of human coronary artery smooth muscle cell proliferation: completely inhibits
[3]
  effect on the anti-proliferative activity of rapamycin (shift of the rapamycin dose response curve): potentiate
[4]
  potency as inhibitor of smooth muscle cells relative to endothelial cells: approximately twice

## COc1c(C)c2c(c(O)c1C/C=C(\C)CCC(=O)O)C(=O)OC2 [mycophenolic acid]
[3]
  effect on the anti-proliferative activity of rapamycin (shift of the rapamycin dose response curve): potentiates
[1]; 180 micro grams rapamycin, 180 micro grams mycophenolic acid, 240 micro grams EVA/BMA
  in vivo release from EVA/BMA basecoat (with or without BMA topcoat): elutes more completely over a shorter duration than the rapamycin

## CC(/C=C/C(=O)NO)=C\[C@@H](C)C(=O)c1ccc(N(C)C)cc1 [trichostatin A]
[5]
  inhibition of human coronary artery smooth muscle cell proliferation: completely inhibit
[5]; read-out: anti-proliferative IC50
  IC50: ~6 nM
[6]
  anti-proliferative IC50's: low nM range
